Laboratory results reported in patent US20250040539A1, “COMPOSITION COMPRISING AN ANTIMICROBIAL AGENT AND A CARBOXAMIDE” (BASF SE, priority 2021, published 2025).

Experiments:
Format in all cases: cell-based
[1] = test system: bacterial mix: Escherichia coli DSM 1576, Alcaligenes faecalis DSM 13644, Pseudomonas aeruginosa ATCC 15442, Staphylococcus aureus ATCC 6538, Burkholderia …; assay: Preservative activity of a basic composition (10% PG in water, pH 7) with 4,4'-dichloro-2-hydroxydiphenyl ether (diclosan) against bacterial contamination (Example 2.2); conditions: day 7
Procedure: (§1) An aqueous composition of pH 7 comprising 10% by weight of propyleneglycol (PG) as organic solvent, 0.015% by weight of 4,4′-dichloro-2-hydroxydiphenyl ether (diclosan) as antimicrobial and 0.04 or 0.1% by weight of the amides listed in the below table was tested for its preserving activity against bacterial contamination (the weight percentages relate to the total weight of the composition). For this purpose, the samples were contaminated with a bacterial mix consisting of: • Escherichia coli DSM 1576 • Alcaligenes faecalis DSM 13644 • Pseudomonas aeruginosa ATCC 15442 • Staphylococcus aureus ATCC 6538 • Burkholderia cepacia DSM 7288 • Pseudomonas putida DSM 12735
The samples were inoculated with the bacterial mix at day 0 to obtain 10E+06 to 10E+07 CFU/ml inoculation in the test sample and stored at 25° C. for 7 days.
CFU was determined at day 7.
Any CFU value at day 7 (d7) obtained with a sample according to the invention containing diclosan and amide (10% PG+0.015% diclosan+Amide in water) lower than the respective value of the “comparative 3” example (10% by weight of propyleneglycol+0.015% by weight of 4,4′-dichloro-2-hydroxydiphenyl ether (diclosan) in water) indicates a better performance.

[2] = test system: fungal mix (including yeasts and molds): Aspergillus brasiliensis DSM 1988, Rhodotorula mucilaginosa DSM 13621, Yarrowia lipolytica DSM 8218; assay: Preservative activity of a basic composition (10% PG in water, pH 7) with 2-phenoxyethanol against fungal contamination (Example 1.1); conditions: 10% PG + 0.36% PE + 0.04% Amide in water, pH 7, 25° C.; for d7 [CFU/ml]: fungal mix inoculated at day 0, 7 and 14 (1-3x10E+05 CFU/ml), day 7 before re-inoculation; for d14 [CFU/ml] / d21 [CFU/ml]: fungal mix inoculated at day 0, 7 and 14; for d14 [CFU/ml]: day 14 before re-inoculation; for d21 [CFU/ml]: day 21
Procedure: An aqueous composition of pH 7 comprising 10% by weight of propyleneglycol (PG) as organic solvent, 0.36% by weight of 2-phenoxyethanol (PE) as antimicrobial and 0.04% by weight of the amide listed in the below table was tested for its preserving activity against fungal contamination (the percentages are weight percent and relate to the total weight of the composition). For this purpose, the samples were contaminated with a fungal mix (including yeasts and molds) consisting of: • Aspergillus brasiliensis DS M 1988 • Rhodotorula mucilaginosa DSM 13621 • Yarrowia lipolytica DS M 8218
To control the efficacy, following control compositions were tested: • “Reference”, consisting of only 10% by weight of propylene glycol in water • “Comparative 1” containing 10% by weight of propylene glycol and amide in the given concentration, but no 2-phenoxyethanol • […] in the given concentration, but no amide.
The samples were inoculated with the fungal mix at day 0, 7 and 14 to obtain a cell density in the range of 1-3×10E+05 CFU/ml (CFU=colony forming units) in the test samples (compositions listed in the below table) and stored at 25° C. for 21 days.
(§2) CFU was determined before re-inoculation at days 7 and 14, and on day 21.

[3] = test system: bacterial mix: Escherichia coli DSM 1576, Alcaligenes faecalis DSM 13644, Pseudomonas aeuginosa ATCC 15442, Staphylococcus aureus ATCC 6538, Burkholderia …; assay: Preservative activity of a basic composition (10% PG in water, pH 7) with 2-phenoxyethanol against bacterial contamination (Example 2.1); conditions: 10% PG + 0.36% PE + 0.04% amide; for d7 [CFU/ml]: day 7; for d14 [CFU/ml]: day 14; for d21 [CFU/ml]: day 21
Procedure: as §1, with “0.36%” for “0.015%”, “2-phenoxyethanol (PE)” for “4,4′-dichloro-2-hydroxydiphenyl ether (diclosan)”, “0.04%” for “0.04 or 0.1%”, “amide” for “amides”, “aeuginosa” for “aeruginosa”
The samples were inoculated with the bacterial mix at day 0, 7 and 14 to obtain 10E+06 to 10E+07 CFU/ml inoculation in the test samples (compositions listed in the below table) consisting of 10% by weight of propylene glycol in water and stored at 25° C. for 21 days.
as §2

[4] = test system: fungal mix: Aspergillus brasiliensis DSM 1988, Rhodotorula mucilaginosa DSM 13621, Yarrowia lipolytica DSM 8218; assay: Preservative activity in a manual dishwashing composition (MDW, pH 7.1) with 1.0% 2-phenoxyethanol against fungal mix (Example 1.2); conditions: MDW + 1.0% PE + 1.0% amide
Procedure: A manual dish wash detergent (MDW) of pH 7.1 containing the following components was used:
The samples were contaminated with a fungal mix consisting of: • Aspergillus brasiliensis DSM 1988 • Rhodotorula mucilaginosa DSM 13621 • Yarrowia lipolytica DSM 8218
The samples were inoculated with the fungal mix at day 0 and 7 to obtain 1-3×10E+05 CFU/ml inoculation in the test sample consisting of the above-defined dish wash detergent MDW and stored at 25° C. for 21 days. CFU was determined before re-inoculation at day 7, and on days 14 and 21.
Any CFU value at d7, d14 or d21 obtained with a MDW sample of the invention containing 2-phenoxyethanol and amide (MDW+1.0% PE+x % of Amide) lower than the respective value of the comparative example (MDW+1.0% by weight of 2-phenoxyethanol) indicates a better performance of the inventive combination of 2-phenoxyethanol with the amide.

| Structure (SMILES) | d7 [CFU/ml] ([1]; 10% PG + 0.015% diclosan, no amide (Comparative)) | d7 [CFU/ml] [2] | d14 [CFU/ml] [2] | d21 [CFU/ml] [2] | d7 [CFU/ml] [3] | d14 [CFU/ml] [3] | d21 [CFU/ml] [3] | d7 [CFU/ml] ([4]; day 7) | d14 [CFU/ml] ([4]; day 14) | d21 [CFU/ml] ([4]; day 21) | d7 [CFU/ml] ([1]; 10% PG + 0.015% diclosan + 0.04% amide) | d7 [CFU/ml] ([1]; 10% PG + 0.04% amide, no diclosan (Comparative 1a)) |
| --- | --- | --- | --- | --- | --- | --- | --- | --- | --- | --- | --- | --- |
| Oc1cc(Cl)ccc1Oc1ccc(Cl)cc1 [diclosan, 4,4′-dichloro-2-hydroxydiphenyl ether, reference compound] | >100,000 CFU/ml |  |  |  |  |  |  |  |  |  |  |  |
| CCCCN(CCCC)C(=O)CC [n-Propanoyl-N,N-dibutylamide] |  | 1,750 CFU/ml | 3,750 CFU/ml | 25,000 CFU/ml | 39,500 CFU/ml | 39,000 CFU/ml | 23,500 CFU/ml |  |  |  |  |  |
| CCCCCCCCCCCC(=O)N(C)C [Dodecanoyl-N,N-dimethylamide] |  | 25 CFU/ml | 170 CFU/ml | 245 CFU/ml | <10 CFU/ml | <10 CFU/ml | 450 CFU/ml |  |  |  |  |  |
| CC(CC(=O)N(C)C)CC(C)(C)C (stereo not drawn) [Isononanoyl-N,N-dimethylamide] |  | 3,600 CFU/ml | 3,350 CFU/ml | 15,000 CFU/ml | 3,850 CFU/ml | 13,500 CFU/ml | 5,000 CFU/ml |  |  |  |  |  |
| CCCCCC(CCC)C(=O)N(C)C (stereo not drawn) [2-Propyl-heptanoyl-N,N-dimethylamide] |  |  |  |  | <10 CFU/ml | 90 CFU/ml | 2,700 CFU/ml |  |  |  |  |  |
| CCCCCCCCCC(=O)N1CCOCC1 [n-Decanoyl-morpholine] |  | 55 CFU/ml | <10 CFU/ml | 35 CFU/ml | <10 CFU/ml | 30 CFU/ml | 190 CFU/ml | 1,200 CFU/ml | 305 CFU/ml | 245 CFU/ml | 41,500 CFU/ml | >100,000 CFU/ml |
